Results from patent US8592422B2, “Bicyclic triazole and pyrazole lactams as allosteric modulators of mGluR5 receptors” (Vanderbilt University, priority 2010, dated 2013).

These compounds were tested against T1, human mGluR5a receptor (Homo sapiens, UniProt P41594) (assay: Cell-based functional Ca2+ mobilization assay (FDSS), potentiation of glutamate EC20 response). Conditions: HEK cells transfected with human mGluR5 (H10H or H12H); in presence of EC20 glutamate.
T1 construct: cDNA subcloned into pcDNA3.1(-)
Procedure: Human embryonic kidney (HEK) cells transfected with rat mGluR5 were plated in clear bottom assay plates for assay in a Functional Drug Screening System (FDSS). In the alternative assay, HEK cells transfected with human mGluR5 were plated for assay in the FDSS. In some cases the HEK cells transfected with human mGluR5 were the H10H cell line. Alternatively, the HEK cells transfected with human mGluR5 were the H12H cell line. […] The cells were loaded with a Ca^2+-sensitive fluorescent dye (e.g., Fluo-4), and the plates were washed and placed in the FDSS instrument. After establishment of a fluorescence baseline for twelve seconds, the compounds of the present invention were added to the cells, and the response in cells was measured. Alternatively, in various further aspects, after establishment of a fluorescence baseline for about three seconds, the compounds of the present invention were added to the cells, and the response in cells was measured. Five minutes later, an mGluR5 agonist (e.g., glutamate, 3,5-dihydroxyphenylglycine, or quisqualate) was added to the cells, and the response of the cells was measured.
The above described assay operated in two modes. In the first mode, a range of concentrations of the present compounds were added to cells, followed by a single fixed concentration of agonist. If a compound acted as a potentiator, an EC50 value for potentiation and a maximum extent of potentiation by the compound at this concentration of agonist was determined by non-linear curve fitting. In the second mode, several fixed concentrations of the present compounds were added to various wells on a plate, followed by a range of concentrations of agonist for each concentration of present compound; the EC50 values for the agonist at each concentration of compound were determined by non-linear curve fitting. A decrease in the EC50 value of the agonist with increasing concentrations of the present compounds (a leftward shift of the agonist concentration-response curve) is an indication of the degree of mGluR5 potentiation at a given concentration of the present compound. An increase in the EC50 value of the agonist with increasing concentrations of the present compounds (a rightward shift of the agonist concentration-response curve) is an indication of the degree of mGluR5 antagonism at a given concentration of the present compound. The second mode also indicates whether the present compounds also affect the maximum response to mGluR5 to agonists.
The mGluR5 activity was determined using the metabotropic glutamate receptor activity assays in human embryonic kidney cells as described herein, wherein the human embryonic kidney cells were transfected with human mGluR5. The compounds in Table 1 were synthesized with methods identical or analogous to those shown herein. The requisite starting materials were commercially available, described in the literature, or readily synthesized by one skilled in the art of organic synthesis. The compound number given in Table I corresponds to the compound number in Table II and the structure given therein.
Human mGluR5a cDNA in pCMV6-XL6 mammalian expression plasmid was purchased from OriGene Technologies, Inc. (catalogue number SC326357) and subcloned into pcDNA3.1(−). Human embryonic kidney (HEK) 293A cells were then transfected with human mGluR5a pcDNA3.1(−) using LipofectAmine-2000 (Invitrogen) and monoclones were selected and tested for functional response using a Ca^2+ mobilization assay. Monoclones were named for the species (“H” for human) plus the location on the plate (e.g. “10H”).
HEK cells transfected with the human mGluR5a receptor (H10H or H12H cell line) were plated at 15,000 cells/well in clear-bottomed poly-D-lysine-coated assay plates (BD Falcon) in glutamate-glutamine-free growth medium and incubated overnight at 37° C. and 5% CO2.

T1 sequence (P41594 21-1180 isoform P41594-2 limits assumed): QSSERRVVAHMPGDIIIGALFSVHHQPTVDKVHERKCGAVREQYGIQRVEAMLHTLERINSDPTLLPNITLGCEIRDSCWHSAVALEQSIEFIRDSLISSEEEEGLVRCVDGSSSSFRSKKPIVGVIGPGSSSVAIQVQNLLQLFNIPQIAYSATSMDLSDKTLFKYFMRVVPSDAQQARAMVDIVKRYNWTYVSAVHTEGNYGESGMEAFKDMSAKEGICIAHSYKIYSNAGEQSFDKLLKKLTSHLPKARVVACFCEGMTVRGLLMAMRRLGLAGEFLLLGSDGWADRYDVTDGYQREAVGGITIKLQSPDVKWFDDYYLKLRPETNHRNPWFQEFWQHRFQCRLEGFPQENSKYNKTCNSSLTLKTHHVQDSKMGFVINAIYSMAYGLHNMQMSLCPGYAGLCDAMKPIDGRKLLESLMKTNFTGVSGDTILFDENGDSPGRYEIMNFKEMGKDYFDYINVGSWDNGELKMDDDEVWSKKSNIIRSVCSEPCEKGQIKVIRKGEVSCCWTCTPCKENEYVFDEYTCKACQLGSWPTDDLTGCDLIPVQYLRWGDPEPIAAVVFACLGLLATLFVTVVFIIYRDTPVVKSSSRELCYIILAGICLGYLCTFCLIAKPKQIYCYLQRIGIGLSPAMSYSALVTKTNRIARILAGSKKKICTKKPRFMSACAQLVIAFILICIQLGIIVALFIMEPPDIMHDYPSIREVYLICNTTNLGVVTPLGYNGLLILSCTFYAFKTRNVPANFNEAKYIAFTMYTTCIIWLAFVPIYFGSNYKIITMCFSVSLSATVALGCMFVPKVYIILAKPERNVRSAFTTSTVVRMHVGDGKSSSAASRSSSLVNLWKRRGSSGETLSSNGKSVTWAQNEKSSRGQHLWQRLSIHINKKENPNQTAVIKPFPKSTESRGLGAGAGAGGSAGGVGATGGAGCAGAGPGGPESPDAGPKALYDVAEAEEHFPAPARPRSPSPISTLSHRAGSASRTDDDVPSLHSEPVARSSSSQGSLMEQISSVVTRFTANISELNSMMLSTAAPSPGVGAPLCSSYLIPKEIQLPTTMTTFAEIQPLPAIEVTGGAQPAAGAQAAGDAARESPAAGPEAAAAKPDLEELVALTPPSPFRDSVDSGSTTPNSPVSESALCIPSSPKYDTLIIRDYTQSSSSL

| SMILES | pEC50 |
| --- | --- |
| CC1Cn2nc(COc3ccccc3)cc2C(=O)N1c1ccc(F)cc1 (racemic) [Example 18] | 6.79 |
| O=C1c2cc(COc3ccccc3)nn2C(CF)CN1c1ccc(F)cc1 (racemic) [Example 264] | 6.95 |
| O=C1c2cc(COc3ccccc3)nn2C(F)CN1c1ccc(F)cc1 (racemic) [Example 271] | 7.05 |
| CC1CN(CC2CC2)C(=O)c2cc(COc3ccccc3)nn21 (single isomer, unassigned) [Example 129] | <4.52 |
| CC1CN(c2ccc(F)cn2)C(=O)c2cc(COc3ccccc3)nn21 (single isomer, unassigned) [Example 132] | 7.00 |
| Cc1nc(N2CC(C)n3nc(COc4ccccc4)cc3C2=O)ccc1F (single isomer, unassigned) [Example 135] | 7.00 |
| CC1CN(c2ccc(F)cc2)C(=O)c2cc(COc3ccc(F)cc3)nn21 (single isomer, unassigned) [Example 238] | 6.87 |
| CC1CN(c2ccc(F)cc2)C(=O)c2cc(COc3cccc(F)c3)nn21 (single isomer, unassigned) [Example 239] | 7.21 |
| CC1CN(c2ccc(F)cc2)C(=O)c2cc(COc3ccccn3)nn21 (single isomer, unassigned) [Example 240] | <4.52 |
| O=C1NCCn2nc(COc3ccccc3)cc21 [Example 1] | 5.65 |
| CN1CCn2nc(COc3ccccc3)cc2C1=O [Example 2] | 5.87 |
| O=C1c2cc(COc3ccccc3)nn2CCN1c1ccc(F)cc1F [Example 3] | 6.94 |

Now from value to compound:

| pEC50 | SMILES |
| --- | --- |
| 6.70 | CC1CN(c2ccc(F)cn2)C(=O)c2cc(COc3ccc(F)cc3)nn21 (racemic) [Example 237] |
| <5.00 | CC1CNC(=O)c2cc(COc3ccccc3)nn21 (racemic) [Example 250] |
| <4.52 | CC(Oc1ccccc1)c1cc2n(n1)CCN(CC1CC1)C2=O (racemic) [Example 257] |
| <5.00 | CC(Oc1ccccc1)c1cc2n(n1)CCN(c1ccc(F)cc1)C2=O (racemic) [Example 258] |
| 5.92 | O=C1c2cc(COc3ccccc3)nn2C(CO)CN1c1ccc(F)cc1 (racemic) [Example 263] |
| 6.85 | CC1CN(CC2CC2)C(=O)c2cc(COc3ccccc3)nn21 (single isomer, unassigned) [Example 128] |
| 7.08 | CC1CN(c2ccc(F)cc2)C(=O)c2cc(COc3ccccc3)nn21 (single isomer, unassigned) [Example 130] |
| 7.04 | O=C1c2cc(COc3ccccc3)nn2C(F)CN1c1ccc(F)cc1 (single isomer, unassigned) [Example 272] |
| 6.97 | O=C1c2cc(COc3ccccc3)nn2C(F)CN1c1ccc(F)cc1 (single isomer, unassigned) [Example 273] |
| 7.12 | Cc1nc2cc(N3CC(C)n4nc(COc5ccccc5)cc4C3=O)ccc2s1 (single isomer, unassigned) [Example 376] |

Same assay, conditions: HEK cells transfected with human mGluR5 (H10H or H12H); in presence of EC20 glutamate; read-out: EC50

| SMILES | EC50 [nM] |
| --- | --- |
| CC1Cn2nc(COc3ccccc3)cc2C(=O)N1c1ccc(F)cc1 (racemic) [Example 18] | 162 |
| O=C1c2cc(COc3ccccc3)nn2C(CF)CN1c1ccc(F)cc1 (racemic) [Example 264] | 112 |
| O=C1c2cc(COc3ccccc3)nn2C(F)CN1c1ccc(F)cc1 (racemic) [Example 271] | 89 |
| CC1CN(CC2CC2)C(=O)c2cc(COc3ccccc3)nn21 (single isomer, unassigned) [Example 129] | > 30200 |
| CC1CN(c2ccc(F)cn2)C(=O)c2cc(COc3ccccc3)nn21 (single isomer, unassigned) [Example 132] | 100 |
| Cc1nc(N2CC(C)n3nc(COc4ccccc4)cc3C2=O)ccc1F (single isomer, unassigned) [Example 135] | 100 |
| CC1CN(c2ccc(F)cc2)C(=O)c2cc(COc3ccc(F)cc3)nn21 (single isomer, unassigned) [Example 238] | 135 |
| CC1CN(c2ccc(F)cc2)C(=O)c2cc(COc3cccc(F)c3)nn21 (single isomer, unassigned) [Example 239] | 62 |
| CC1CN(c2ccc(F)cc2)C(=O)c2cc(COc3ccccn3)nn21 (single isomer, unassigned) [Example 240] | > 30200 |
| O=C1NCCn2nc(COc3ccccc3)cc21 [Example 1] | 2240 |
| CN1CCn2nc(COc3ccccc3)cc2C1=O [Example 2] | 1350 |
| O=C1c2cc(COc3ccccc3)nn2CCN1c1ccc(F)cc1F [Example 3] | 115 |

Continued, values first:

| EC50 [nM] | SMILES |
| --- | --- |
| 200 | CC1CN(c2ccc(F)cn2)C(=O)c2cc(COc3ccc(F)cc3)nn21 (racemic) [Example 237] |
| > 10000 | CC1CNC(=O)c2cc(COc3ccccc3)nn21 (racemic) [Example 250] |
| > 30200 | CC(Oc1ccccc1)c1cc2n(n1)CCN(CC1CC1)C2=O (racemic) [Example 257] |
| > 10000 | CC(Oc1ccccc1)c1cc2n(n1)CCN(c1ccc(F)cc1)C2=O (racemic) [Example 258] |
| 1200 | O=C1c2cc(COc3ccccc3)nn2C(CO)CN1c1ccc(F)cc1 (racemic) [Example 263] |
| 141 | CC1CN(CC2CC2)C(=O)c2cc(COc3ccccc3)nn21 (single isomer, unassigned) [Example 128] |
| 83 | CC1CN(c2ccc(F)cc2)C(=O)c2cc(COc3ccccc3)nn21 (single isomer, unassigned) [Example 130] |
| 91 | O=C1c2cc(COc3ccccc3)nn2C(F)CN1c1ccc(F)cc1 (single isomer, unassigned) [Example 272] |
| 107 | O=C1c2cc(COc3ccccc3)nn2C(F)CN1c1ccc(F)cc1 (single isomer, unassigned) [Example 273] |
| 75 | Cc1nc2cc(N3CC(C)n4nc(COc5ccccc5)cc4C3=O)ccc2s1 (single isomer, unassigned) [Example 376] |

Same assay, conditions: maximum % effect in concentration-response curve, as percent of response to maximally effective glutamate

| SMILES | Emax (%) |
| --- | --- |
| CC1Cn2nc(COc3ccccc3)cc2C(=O)N1c1ccc(F)cc1 (racemic) [Example 18] | 70 |
| O=C1c2cc(COc3ccccc3)nn2C(CF)CN1c1ccc(F)cc1 (racemic) [Example 264] | 63 |
| O=C1c2cc(COc3ccccc3)nn2C(F)CN1c1ccc(F)cc1 (racemic) [Example 271] | 66 |
| CC1CN(CC2CC2)C(=O)c2cc(COc3ccccc3)nn21 (single isomer, unassigned) [Example 129] | 21 |
| CC1CN(c2ccc(F)cn2)C(=O)c2cc(COc3ccccc3)nn21 (single isomer, unassigned) [Example 132] | 68 |
| Cc1nc(N2CC(C)n3nc(COc4ccccc4)cc3C2=O)ccc1F (single isomer, unassigned) [Example 135] | 56 |
| CC1CN(c2ccc(F)cc2)C(=O)c2cc(COc3ccc(F)cc3)nn21 (single isomer, unassigned) [Example 238] | 67 |
| CC1CN(c2ccc(F)cc2)C(=O)c2cc(COc3cccc(F)c3)nn21 (single isomer, unassigned) [Example 239] | 72 |
| CC1CN(c2ccc(F)cc2)C(=O)c2cc(COc3ccccn3)nn21 (single isomer, unassigned) [Example 240] | 23 |
| O=C1NCCn2nc(COc3ccccc3)cc21 [Example 1] | 69 |
| CN1CCn2nc(COc3ccccc3)cc2C1=O [Example 2] | 72 |
| O=C1c2cc(COc3ccccc3)nn2CCN1c1ccc(F)cc1F [Example 3] | 101 |

Other lines, results leading:

| Emax (%) | SMILES |
| --- | --- |
| 52 | CC1CN(c2ccc(F)cn2)C(=O)c2cc(COc3ccc(F)cc3)nn21 (racemic) [Example 237] |
| 52 | CC1CNC(=O)c2cc(COc3ccccc3)nn21 (racemic) [Example 250] |
| 25 | CC(Oc1ccccc1)c1cc2n(n1)CCN(CC1CC1)C2=O (racemic) [Example 257] |
| 65 | CC(Oc1ccccc1)c1cc2n(n1)CCN(c1ccc(F)cc1)C2=O (racemic) [Example 258] |
| 87 | O=C1c2cc(COc3ccccc3)nn2C(CO)CN1c1ccc(F)cc1 (racemic) [Example 263] |
| 66 | CC1CN(CC2CC2)C(=O)c2cc(COc3ccccc3)nn21 (single isomer, unassigned) [Example 128] |
| 71 | CC1CN(c2ccc(F)cc2)C(=O)c2cc(COc3ccccc3)nn21 (single isomer, unassigned) [Example 130] |
| 69 | O=C1c2cc(COc3ccccc3)nn2C(F)CN1c1ccc(F)cc1 (single isomer, unassigned) [Example 272] |
| 68 | O=C1c2cc(COc3ccccc3)nn2C(F)CN1c1ccc(F)cc1 (single isomer, unassigned) [Example 273] |
| 60 | Cc1nc2cc(N3CC(C)n4nc(COc5ccccc5)cc4C3=O)ccc2s1 (single isomer, unassigned) [Example 376] |
